# Values quoted from earlier work, collected in US6051572A, “Azetidine, pyrrolidine and piperidine derivatives” (Merck Sharp & Dohme Ltd., priority 1995, dated 2000).
# Settings: therapeutic doses
compound,measurement,value
CNS(=O)(=O)Cc1ccc2[nH]cc(CCN(C)C)c2c1 [sumatriptan],adverse events in humans,certain adverse cardiovascular events
